Consider one molecule from patent US12173005B1, “Pyrimido[1′,6′:1,5]pyrazolo[4,3-b][1,7]naphthyridine compounds as CK2 inhibitors” (KING FAISAL UNIVERSITY, priority 2023, dated 2024).

Each structure is given as a SMILES string.

For assay [1], the system named is PC3 (prostate). Description: MTT in vitro cytotoxic activity assay, PC3. In kind it is cell-based. As to conditions: Homo sapiens; cells exposed for 96 hours; 50% inhibition of cell proliferation; read-out: Cytotoxicity activity IC50, PC3 (prostate). On the procedure:
(§1) Compounds 1-16 were screened for their in vitro cytotoxic activity utilizing a 3-(4,5-dimethyl-thiazol-2-yl)-2,5-diphenyltetrazolium bromide (MTT) assay against selected cancer human cell lines consisting of PC3 (prostate), HCT116 (colon), A375 (melanoma), H1299 (lung), MIAPaCa-2 (pancreas), HL60 (leukemia), MCF7 (breast), MDA-MB-231 (breast) (T. Mosmann, J. Immunol. Meth., 1983, 65, 55-63). The cells were cultured at 37° C. in RMPI1640 medium supplemented with 10% fetal bovine serum, 50 IU/mL penicillin, and 50 μg/mL streptomycin in a 5% CO2 incubator. All cells were sub-cultured 3 times/week by trypsinisation. Viable cells were seeded and allowed to adhere for 12 h before a test drug was added in 96-well plates at an initial density of 1.0×10^5 cells/mL. Tumor cell lines were separately exposed to various concentrations of the tested compounds followed by incubation at a temperature of 37° C. during 96 hours inside a medium of fresh RMPI 1640. Cells were subsequently incubated at 37° C. using MTT at 0.5 mg/mL during 4 hours. After removal of supernatant, formazan crystals were dissolved in isopropanol and the optical density was measured at 570 nm. CX-4945 was used as a positive control.

Assay [2] has as its system HCT116 (colon). Description: MTT in vitro cytotoxic activity assay, HCT116. The assay is classed as cell-based. As to conditions: Homo sapiens, HCT-116; cells exposed for 96 hours; 50% inhibition of cell proliferation; read-out: Cytotoxicity activity IC50, HCT116 (colon). On the procedure:
as §1

Assay [3] has as its system A375 (melanoma). Description: MTT in vitro cytotoxic activity assay, A375. The assay is classed as cell-based. As to conditions: Homo sapiens, A-375; cells exposed for 96 hours; 50% inhibition of cell proliferation; read-out: Cytotoxicity activity IC50, A375 (melanoma). Here is the method:
as §1

Assay [4] has as its system H1299 (lung). Description: MTT in vitro cytotoxic activity assay, H1299. In kind it is cell-based. To be noted: Homo sapiens, NCI-H1299; cells exposed for 96 hours; 50% inhibition of cell proliferation; read-out: Cytotoxicity activity IC50, H1299 (lung). On the procedure:
as §1

Assay [5] deals with MIAPaCa-2 (pancreas). Description: MTT in vitro cytotoxic activity assay, MIAPaCa-2. To be noted: Homo sapiens, MIA PaCa-2; cells exposed for 96 hours; 50% inhibition of cell proliferation; read-out: Cytotoxicity activity IC50, MIAPaCa-2 (pancreas). In kind it is cell-based. Here is the method:
as §1

Assay [6] deals with HL60 (leukemia). In words: MTT in vitro cytotoxic activity assay, HL60. As to conditions: Homo sapiens, HL-60; cells exposed for 96 hours; 50% inhibition of cell proliferation; read-out: Cytotoxicity activity IC50, HL60 (leukemia). In kind it is cell-based. On the procedure: as §1
Assay [7] has as its system MCF7 (breast). In words: MTT in vitro cytotoxic activity assay, MCF7. In kind it is cell-based. To be noted: Homo sapiens, cells exposed for 96 hours, 50% inhibition of cell proliferation, read-out: Cytotoxicity activity IC50, MCF7 (breast). On the procedure:
as §1

Assay [8] deals with MDA-MB-231 (breast). In words: MTT in vitro cytotoxic activity assay, MDA-MB-231. In kind it is cell-based. To be noted: Homo sapiens, cells exposed for 96 hours, 50% inhibition of cell proliferation, read-out: Cytotoxicity activity IC50, MDA-MB-231 (breast). Here is the method:
as §1

The target in assay [9] is T1, recombinant human CK2 (RRββ-holoenzyme) (Homo sapiens, UniProt P68400).
T1 construct: purchased Millipore
T1 sequence (P68400 whole entry): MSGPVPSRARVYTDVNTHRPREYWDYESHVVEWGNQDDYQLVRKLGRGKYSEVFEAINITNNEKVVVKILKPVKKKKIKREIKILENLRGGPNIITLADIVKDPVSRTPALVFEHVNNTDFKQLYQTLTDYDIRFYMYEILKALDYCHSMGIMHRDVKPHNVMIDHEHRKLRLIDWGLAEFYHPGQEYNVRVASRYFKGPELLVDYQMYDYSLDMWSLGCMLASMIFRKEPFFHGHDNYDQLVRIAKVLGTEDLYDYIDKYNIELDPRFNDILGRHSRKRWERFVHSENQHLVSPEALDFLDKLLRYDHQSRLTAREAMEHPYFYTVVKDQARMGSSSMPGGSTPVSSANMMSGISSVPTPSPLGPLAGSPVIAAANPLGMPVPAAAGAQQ
T1 sequence (P67870 whole entry partner): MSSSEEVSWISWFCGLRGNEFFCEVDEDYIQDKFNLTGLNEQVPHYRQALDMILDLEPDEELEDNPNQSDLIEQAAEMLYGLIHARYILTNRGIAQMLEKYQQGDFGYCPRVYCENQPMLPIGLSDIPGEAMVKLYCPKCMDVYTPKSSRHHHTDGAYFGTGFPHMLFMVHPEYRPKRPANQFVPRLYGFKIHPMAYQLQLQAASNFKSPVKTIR
Description: CK2 Kinase Assay (radiometric, [γ-33P] ATP). In kind it is biochemical. As to conditions: final ATP concentration 15 μM; 10 min at 30° C.; read-out: protein kinase CK2 IC50. Here is the method:
CK2 Kinase Assay was conducted using the protocol as described in Pierre F. et al; J. Med. Chem. 2011, 54, 635-654. The tested compounds in aqueous solution were added at a volume of 10 μL to a reaction mixture comprising 10 μL of assay dilution buffer (ADB; 20 mM MOPS, pH 7.2, 25 mM β-glycerol phosphate, 5 mM EGTA, 1 mM sodium orthovanadate, and 1 mM dithiothreitol), 10 μL of substrate peptide (RRRDDDSDDD, dissolved in ADB at a concentration of 1 mM), 10 μL of recombinant human CK2 (RRββ-holoenzyme, 25 ng dissolved in ADB; Millipore). Reactions were initiated by the addition of 10 μL of ATP solution (90% 75 mMMgCl2, 75 μM ATP (final ATP concentration: 15 μM) dissolved in ADB; 10% [γ-33P] ATP (stock 1mCi/100 μL; 3000 Ci/mmol (Perkin-Elmer) and maintained for 10 min at 30° C. The reactions were quenched with 100 μL of 0.75% phosphoric acid and then transferred to and filtered through a phosphor cellulose filter plate (Millipore). After washing each well five times with 0.75% phosphoric acid, the plate was dried under vacuum for 5 min and, following the addition of 15 μL of scintillation fluid to each well, the residual radioactivity was measured using a Wallac luminescence counter. The IC50 values were derived from eight concentrations of test inhibitors.

As to `Clc1cccc(Nc2c3ccncc3nc3c2nn2cnccc32)c1` [Compound 1, N-(3-chlorophenyl)pyrimido[1′,6′:1,5]pyrazolo[4,3-b][1,7]naphthyridin-10-amine], the IC50 (usually the concentration needed to halve the response being measured) is 1.5 µM in assay [1]; 1.3 µM in assay [2]; 3.2 µM in assay [3]; 2.9 µM in assay [4]; 1.2 µM in [5]; 2.7 µM in assay [6]. In addition, the IC50 in assay [7] came to 6.5 µM; in assay [8], 5.1 µM; in [9], 0.092 µM.
